Data taken from publication PMC3919453 (Bioorganic & medicinal chemistry letters, 2013).

Legend:
KOR = KOR (Homo sapiens, UniProt P41145); experiment: agonist-stimulated [35S]GTPγS binding, KOR; conditions: for EC50 (nM) KOR: [35S]GTPγS binding, CHO-KOR membranes, mean ± SEM; for EC50 (nM) KOR / % stimulation KOR: dns: does not stimulate; for % stimulation KOR: percent maximal stimulation relative to standard agonist U69,593 at 10 µM
MOR = MOR (Rattus norvegicus, UniProt P33535); experiment: agonist-stimulated [35S]GTPγS binding, MOR; conditions: for EC50 (nM) MOR: [35S]GTPγS binding, C6-MOR membranes, mean ± SEM, dns: does not stimulate; for efficacy at MOR (in words): [35S]GTPγS assay
Chain of MOR (P33535 whole entry): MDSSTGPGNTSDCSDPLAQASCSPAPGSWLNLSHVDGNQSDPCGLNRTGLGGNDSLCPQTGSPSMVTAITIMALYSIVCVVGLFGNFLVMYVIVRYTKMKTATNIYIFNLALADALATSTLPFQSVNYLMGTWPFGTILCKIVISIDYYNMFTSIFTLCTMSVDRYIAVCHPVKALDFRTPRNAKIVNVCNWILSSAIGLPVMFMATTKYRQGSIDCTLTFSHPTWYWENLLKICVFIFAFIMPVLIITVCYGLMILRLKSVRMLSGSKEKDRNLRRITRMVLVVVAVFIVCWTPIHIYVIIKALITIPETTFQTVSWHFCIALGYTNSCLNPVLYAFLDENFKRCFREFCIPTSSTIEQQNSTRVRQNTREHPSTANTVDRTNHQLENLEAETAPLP

DOR = DOR (Rattus norvegicus, UniProt P33533); experiment: agonist-stimulated [35S]GTPγS binding, DOR; conditions: for EC50 (nM) DOR: [35S]GTPγS binding, C6-DOR membranes, dns: does not stimulate
Chain of DOR (P33533 whole entry): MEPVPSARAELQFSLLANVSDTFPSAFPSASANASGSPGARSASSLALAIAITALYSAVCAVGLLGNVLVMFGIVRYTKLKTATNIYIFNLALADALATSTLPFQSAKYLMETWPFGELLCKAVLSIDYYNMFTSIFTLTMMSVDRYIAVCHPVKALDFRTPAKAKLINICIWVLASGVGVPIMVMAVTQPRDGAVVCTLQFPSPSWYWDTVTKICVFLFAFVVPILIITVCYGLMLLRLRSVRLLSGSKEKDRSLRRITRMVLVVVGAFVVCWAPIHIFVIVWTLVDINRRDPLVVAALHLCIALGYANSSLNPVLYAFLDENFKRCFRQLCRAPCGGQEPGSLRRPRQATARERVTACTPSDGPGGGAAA

Chain of KOR (P41145 whole entry): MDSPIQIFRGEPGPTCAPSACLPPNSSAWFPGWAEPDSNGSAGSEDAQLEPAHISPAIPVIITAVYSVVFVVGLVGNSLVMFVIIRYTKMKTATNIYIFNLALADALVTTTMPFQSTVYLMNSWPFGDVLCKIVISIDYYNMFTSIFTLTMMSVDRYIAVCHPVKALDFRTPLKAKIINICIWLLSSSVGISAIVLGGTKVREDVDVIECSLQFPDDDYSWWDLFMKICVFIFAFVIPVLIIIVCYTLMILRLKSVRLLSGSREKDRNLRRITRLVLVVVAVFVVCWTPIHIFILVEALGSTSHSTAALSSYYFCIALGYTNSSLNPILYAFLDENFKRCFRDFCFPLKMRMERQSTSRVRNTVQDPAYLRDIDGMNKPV

SMILES: Cc1cc(O)cc(C)c1C[C@H](N)C(=O)N1CCN(CCC(c2ccccc2)c2ccccc2)CC1 [Compound 8]
- EC50 (nM) KOR (KOR): dns
- % stimulation KOR (KOR): dns
- EC50 (nM) MOR (MOR): dns
- EC50 (nM) DOR (DOR): dns

SMILES: Cc1cc(O)cc(C)c1C[C@H](N)C(=O)N1CCN(C/C=C/Cc2ccccc2)CC1 [Compound 10]
- EC50 (nM) DOR (DOR): dns

SMILES: Cc1cc(O)cc(C)c1C[C@H](N)C(=O)N1CCC(Cc2ccccc2)CC1 [Compound 3]
- EC50 (nM) KOR (KOR): dns
- % stimulation KOR (KOR): dns
- efficacy at MOR (in words) (MOR): lacked any efficacy
- EC50 (nM) MOR (MOR): dns
- EC50 (nM) DOR (DOR): dns

SMILES: Cc1cc(O)cc(C)c1C[C@H](N)C(=O)N1CCN(C/C=C/c2cccc3ccccc23)CC1 [Compound 7]
- efficacy at KOR (in words) (KOR; [35S]GTPγS assay): no efficacy
- % stimulation KOR (KOR): dns
- efficacy at MOR (in words) (MOR): no efficacy
- efficacy at DOR (in words) (DOR; [35S]GTPγS assay): no efficacy

SMILES: Cc1cc(O)cc(C)c1C[C@H](N)C(=O)N1CCN(CCCc2ccccc2)CC1 [Compound 5]
- EC50 (nM) KOR (KOR): dns
- % stimulation KOR (KOR): dns
- EC50 (nM) DOR (DOR): dns

SMILES: Cc1cc(O)cc(C)c1C[C@H](N)C(=O)N1CCN(CCCCCc2ccccc2)CC1 [Compound 12]
- EC50 (nM) DOR (DOR): dns

SMILES: Cc1cc(O)cc(C)c1C[C@H](N)C(=O)N1CCC(Cc2ccccc2)c2ccccc21 (some centres unmarked) [Compound 2]
- EC50 (nM) KOR (KOR): dns
- % stimulation KOR (KOR): dns
- efficacy at MOR (in words) (MOR): no notable efficacy
- EC50 (nM) MOR (MOR): dns
- EC50 (nM) DOR (DOR): dns

SMILES: Cc1cc(O)cc(C)c1C[C@H](N)C(=O)N1CCN(CCCc2cccc3ccccc23)CC1 [Compound 6]
- % stimulation KOR (KOR): dns
- efficacy at MOR (in words) (MOR): partial agonist profile

SMILES: Cc1cc(O)cc(C)c1C[C@H](N)C(=O)N1CCN(CCCCc2ccccc2)CC1 [Compound 9]
- EC50 (nM) KOR (KOR): dns
- EC50 (nM) DOR (DOR): dns

SMILES: Cc1cc(O)cc(C)c1C[C@H](N)C(=O)N1CCN(C/C=C\Cc2ccccc2)CC1 [Compound 11]
- EC50 (nM) DOR (DOR): dns

SMILES: Cc1cc(O)cc(C)c1C[C@H](N)C(=O)N1CCC(CCCc2ccccc2)CC1 [Compound 4]
- EC50 (nM) KOR (KOR): dns
- % stimulation KOR (KOR): dns
- efficacy at MOR (in words) (MOR): weak partial agonist
- EC50 (nM) DOR (DOR): dns
